# According to the kinase profiling compilation of Christmann-Franck et al. (2016):
# Columns and labels:
# AURKB (human) = AURKB (human) (UniProt Q96GD4)
# CDK2 CCNA2 (human) = CDK2 CCNA2 (human) (UniProt P20248+P24941)
# CSNK2A1 (human) = CSNK2A1 (human) (UniProt P68400)
# EEF2K (human) = EEF2K (human) (UniProt O00418)
# HIPK2 (human) = HIPK2 (human) (UniProt Q9H2X6)
# INSR (human) = INSR (human) (UniProt P06213)
# MAPK11 (human) = MAPK11 (human) (UniProt Q15759)
# MAPK8 (human) = MAPK8 (human) (UniProt P45983)
# MAPKAPK2 (human) = MAPKAPK2 (human) (UniProt P49137)
# PAK7 (human) = PAK7 (human) (UniProt Q9P286)
# Chain of PAK7 (human) (Q9P286 whole entry, looked up): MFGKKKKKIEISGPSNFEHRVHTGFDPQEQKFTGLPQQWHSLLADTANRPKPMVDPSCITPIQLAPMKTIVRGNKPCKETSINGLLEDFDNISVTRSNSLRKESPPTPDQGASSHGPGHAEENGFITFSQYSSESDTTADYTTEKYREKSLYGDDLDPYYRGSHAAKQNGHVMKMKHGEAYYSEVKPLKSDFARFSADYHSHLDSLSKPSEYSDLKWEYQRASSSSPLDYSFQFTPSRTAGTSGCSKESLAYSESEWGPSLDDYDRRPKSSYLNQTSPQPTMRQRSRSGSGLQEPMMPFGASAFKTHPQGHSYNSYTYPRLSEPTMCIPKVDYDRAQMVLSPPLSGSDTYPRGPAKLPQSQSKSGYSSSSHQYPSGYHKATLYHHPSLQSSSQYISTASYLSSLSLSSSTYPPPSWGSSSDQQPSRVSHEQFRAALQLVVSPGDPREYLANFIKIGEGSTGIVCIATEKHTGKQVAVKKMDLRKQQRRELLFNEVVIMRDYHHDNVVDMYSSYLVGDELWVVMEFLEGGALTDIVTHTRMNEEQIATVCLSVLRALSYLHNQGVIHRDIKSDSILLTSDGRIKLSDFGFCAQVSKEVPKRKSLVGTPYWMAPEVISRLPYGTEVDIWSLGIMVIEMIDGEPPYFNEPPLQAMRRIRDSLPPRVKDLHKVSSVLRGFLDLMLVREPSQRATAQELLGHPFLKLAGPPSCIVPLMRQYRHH
# PIM3 (human) = PIM3 (human) (UniProt Q86V86)
# PLK1 (human) = PLK1 (human) (UniProt P53350)
# PRKCA (human) = PRKCA (human) (UniProt P17252)
# [1] = test system: SGK1 (human), O00141 [S422D]
# YES1 (human) = YES1 (human) (UniProt P07947)
# [2] = test system: ABL1 (human), P00519 [E255K]; experiment: KINOMEscan competition binding; conditions: compound 10.0 µM
# [3] = test system: ABL1 (human), P00519 [Y253F]; experiment: KINOMEscan competition binding; conditions: compound 10.0 µM
# [4] = test system: EGFR (human), P00533 [746-750 del]; experiment: KINOMEscan competition binding; conditions: compound 10.0 µM
# [5] = test system: EGFR (human), P00533 [G719C]; experiment: KINOMEscan competition binding; conditions: compound 10.0 µM
# [6] = test system: EGFR (human), P00533 [G719S]; experiment: KINOMEscan competition binding; conditions: compound 10.0 µM
# [7] = test system: EGFR (human), P00533 [L861Q]; experiment: KINOMEscan competition binding; conditions: compound 10.0 µM
# [8] = test system: EGFR (human), P00533 [P753S; 747-752 del]; experiment: KINOMEscan competition binding; conditions: compound 10.0 µM
# [9] = test system: KIT (human), P10721 [V559D/V654A]; experiment: KINOMEscan competition binding; conditions: compound 10.0 µM
# MARK2 (human) [10] = molecular target: MARK2 (human) (UniProt Q7KZI7); experiment: KINOMEscan competition binding; conditions: compound 10.0 µM
# Chain of MARK2 (human) (Q7KZI7 whole entry, looked up): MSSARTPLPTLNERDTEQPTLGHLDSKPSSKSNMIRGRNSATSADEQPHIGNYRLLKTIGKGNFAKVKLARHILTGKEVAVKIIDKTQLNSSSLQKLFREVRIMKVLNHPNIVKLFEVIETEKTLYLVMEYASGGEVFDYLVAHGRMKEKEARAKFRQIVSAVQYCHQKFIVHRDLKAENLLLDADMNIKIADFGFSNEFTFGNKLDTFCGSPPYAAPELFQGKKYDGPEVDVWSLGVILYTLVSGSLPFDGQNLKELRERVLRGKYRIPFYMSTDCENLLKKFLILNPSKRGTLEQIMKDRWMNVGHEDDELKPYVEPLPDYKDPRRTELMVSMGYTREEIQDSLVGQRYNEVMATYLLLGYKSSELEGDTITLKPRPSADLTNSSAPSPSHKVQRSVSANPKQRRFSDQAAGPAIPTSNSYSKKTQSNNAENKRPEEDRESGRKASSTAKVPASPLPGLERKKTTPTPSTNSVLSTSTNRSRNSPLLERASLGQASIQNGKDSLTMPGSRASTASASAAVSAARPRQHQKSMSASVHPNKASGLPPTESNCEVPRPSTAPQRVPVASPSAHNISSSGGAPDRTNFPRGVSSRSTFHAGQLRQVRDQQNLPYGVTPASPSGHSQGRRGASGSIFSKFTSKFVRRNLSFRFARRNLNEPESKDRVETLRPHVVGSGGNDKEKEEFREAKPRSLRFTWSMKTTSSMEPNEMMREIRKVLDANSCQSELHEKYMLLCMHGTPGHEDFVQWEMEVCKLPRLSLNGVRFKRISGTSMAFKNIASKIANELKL
# PIK3CA (human) = PIK3CA (human) (UniProt P42336); experiment: KINOMEscan competition binding; conditions: compound 10.0 µM
# [11] = test system: PIK3CA (human), P42336 [H1047Y]; experiment: KINOMEscan competition binding; conditions: compound 10.0 µM
# PIK3CG (human) = PIK3CG (human) (UniProt P48736); experiment: KINOMEscan competition binding; conditions: compound 10.0 µM
# [12] = test system: AKT2 (human), P31751 [S474D]
# BRSK1 (human) = BRSK1 (human) (UniProt Q8TDC3)
# GCK (human) = GCK (human) (UniProt Q12851)
# HIPK1 (human) = HIPK1 (human) (UniProt Q86Z02)
# IRAK4 (human) = IRAK4 (human) (UniProt Q9NWZ3)
# MARK2 (human) [13] = molecular target: MARK2 (human) (UniProt Q7KZI7)
# MINK1 (human) = MINK1 (human) (UniProt Q8N4C8)
# [14] = test system: PAK2 (human), Q13177 [T402E]
# STK11 (human) = STK11 (human) (UniProt Q15831)
# Chain of INSR (human) (P06213 whole entry, looked up): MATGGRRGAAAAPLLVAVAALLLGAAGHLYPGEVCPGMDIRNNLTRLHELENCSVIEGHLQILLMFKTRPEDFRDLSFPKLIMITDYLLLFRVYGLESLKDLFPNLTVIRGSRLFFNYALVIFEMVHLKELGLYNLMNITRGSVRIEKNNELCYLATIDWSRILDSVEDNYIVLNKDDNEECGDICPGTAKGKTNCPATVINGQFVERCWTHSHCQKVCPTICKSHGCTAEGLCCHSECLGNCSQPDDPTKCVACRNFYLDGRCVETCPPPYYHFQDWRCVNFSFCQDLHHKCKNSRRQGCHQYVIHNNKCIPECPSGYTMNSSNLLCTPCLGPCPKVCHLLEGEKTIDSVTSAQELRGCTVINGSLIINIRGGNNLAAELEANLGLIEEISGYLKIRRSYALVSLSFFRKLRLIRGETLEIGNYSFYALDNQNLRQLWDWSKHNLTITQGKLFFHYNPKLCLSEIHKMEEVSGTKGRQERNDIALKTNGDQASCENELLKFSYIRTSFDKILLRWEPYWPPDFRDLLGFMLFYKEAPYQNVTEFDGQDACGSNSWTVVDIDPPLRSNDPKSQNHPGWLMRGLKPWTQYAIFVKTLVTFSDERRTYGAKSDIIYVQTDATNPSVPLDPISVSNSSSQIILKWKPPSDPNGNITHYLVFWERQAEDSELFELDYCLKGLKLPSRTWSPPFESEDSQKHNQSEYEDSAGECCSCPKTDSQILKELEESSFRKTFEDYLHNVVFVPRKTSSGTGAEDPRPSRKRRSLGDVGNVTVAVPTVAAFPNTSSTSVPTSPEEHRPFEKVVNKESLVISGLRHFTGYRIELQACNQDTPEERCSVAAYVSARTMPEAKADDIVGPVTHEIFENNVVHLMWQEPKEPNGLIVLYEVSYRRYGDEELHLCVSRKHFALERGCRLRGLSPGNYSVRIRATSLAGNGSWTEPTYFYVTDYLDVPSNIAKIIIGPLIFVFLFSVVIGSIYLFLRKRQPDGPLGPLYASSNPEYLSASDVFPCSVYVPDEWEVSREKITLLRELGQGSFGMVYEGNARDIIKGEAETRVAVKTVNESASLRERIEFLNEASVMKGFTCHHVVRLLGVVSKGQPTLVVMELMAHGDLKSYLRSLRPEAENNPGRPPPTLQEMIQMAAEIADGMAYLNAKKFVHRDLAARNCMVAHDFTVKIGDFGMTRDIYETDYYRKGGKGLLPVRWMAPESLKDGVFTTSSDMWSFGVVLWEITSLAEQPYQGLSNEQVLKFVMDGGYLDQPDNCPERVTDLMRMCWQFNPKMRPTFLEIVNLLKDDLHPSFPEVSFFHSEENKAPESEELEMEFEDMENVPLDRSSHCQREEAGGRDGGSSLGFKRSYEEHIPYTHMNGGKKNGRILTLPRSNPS
# Chain of EEF2K (human) (O00418 whole entry, looked up): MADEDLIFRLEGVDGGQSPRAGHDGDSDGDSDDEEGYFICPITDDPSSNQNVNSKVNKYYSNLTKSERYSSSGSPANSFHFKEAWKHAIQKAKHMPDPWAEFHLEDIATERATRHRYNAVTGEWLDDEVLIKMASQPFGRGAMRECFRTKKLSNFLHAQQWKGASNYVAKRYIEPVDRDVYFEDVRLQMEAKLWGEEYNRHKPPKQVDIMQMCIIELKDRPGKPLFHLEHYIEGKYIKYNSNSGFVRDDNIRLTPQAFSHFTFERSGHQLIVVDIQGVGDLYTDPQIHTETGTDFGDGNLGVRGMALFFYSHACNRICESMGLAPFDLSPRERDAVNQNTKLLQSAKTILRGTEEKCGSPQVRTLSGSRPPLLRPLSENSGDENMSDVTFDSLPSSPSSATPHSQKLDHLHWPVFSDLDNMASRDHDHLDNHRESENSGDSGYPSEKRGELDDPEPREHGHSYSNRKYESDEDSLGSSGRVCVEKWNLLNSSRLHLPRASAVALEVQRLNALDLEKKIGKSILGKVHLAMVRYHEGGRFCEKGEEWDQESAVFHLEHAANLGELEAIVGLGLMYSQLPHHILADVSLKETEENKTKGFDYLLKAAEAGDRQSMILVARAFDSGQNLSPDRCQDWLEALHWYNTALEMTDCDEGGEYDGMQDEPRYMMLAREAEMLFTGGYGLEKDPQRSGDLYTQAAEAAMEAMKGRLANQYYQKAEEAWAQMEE
# Chain of MAPK11 (human) (Q15759 whole entry, looked up): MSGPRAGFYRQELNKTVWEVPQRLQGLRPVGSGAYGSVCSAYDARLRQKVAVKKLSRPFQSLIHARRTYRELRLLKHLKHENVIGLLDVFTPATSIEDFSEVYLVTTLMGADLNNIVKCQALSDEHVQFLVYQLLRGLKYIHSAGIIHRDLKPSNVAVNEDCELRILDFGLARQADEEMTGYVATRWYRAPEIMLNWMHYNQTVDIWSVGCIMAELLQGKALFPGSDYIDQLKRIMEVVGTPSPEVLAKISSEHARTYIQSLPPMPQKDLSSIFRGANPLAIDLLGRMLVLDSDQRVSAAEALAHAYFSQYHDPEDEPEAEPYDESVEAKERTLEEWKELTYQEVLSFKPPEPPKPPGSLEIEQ
# Chain of CSNK2A1 (human) (P68400 whole entry, looked up): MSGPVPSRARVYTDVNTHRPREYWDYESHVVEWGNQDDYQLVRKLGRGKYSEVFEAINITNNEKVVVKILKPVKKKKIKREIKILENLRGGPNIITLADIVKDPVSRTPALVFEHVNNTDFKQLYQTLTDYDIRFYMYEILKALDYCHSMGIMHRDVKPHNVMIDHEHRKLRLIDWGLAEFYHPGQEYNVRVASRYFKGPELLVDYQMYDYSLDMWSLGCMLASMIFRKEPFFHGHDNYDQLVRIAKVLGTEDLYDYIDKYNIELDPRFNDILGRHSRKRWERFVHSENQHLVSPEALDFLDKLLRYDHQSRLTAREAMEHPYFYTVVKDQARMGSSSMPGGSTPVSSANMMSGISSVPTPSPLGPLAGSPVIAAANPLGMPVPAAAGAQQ
# Chain of AURKB (human) (Q96GD4 whole entry, looked up): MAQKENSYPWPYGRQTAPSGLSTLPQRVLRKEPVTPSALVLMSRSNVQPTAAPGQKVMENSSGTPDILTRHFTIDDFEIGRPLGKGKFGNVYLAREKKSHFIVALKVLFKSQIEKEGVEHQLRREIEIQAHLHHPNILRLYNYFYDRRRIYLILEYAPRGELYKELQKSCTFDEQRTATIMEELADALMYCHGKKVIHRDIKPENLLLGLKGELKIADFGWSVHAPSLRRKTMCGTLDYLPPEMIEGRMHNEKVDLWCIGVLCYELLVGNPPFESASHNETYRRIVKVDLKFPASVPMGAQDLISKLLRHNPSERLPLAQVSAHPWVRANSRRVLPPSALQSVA
structure (smiles),measurement,setting,value
COc1ccc(-c2ccc3c(N4CCOCC4)nc(N4C[C@@H](C)O[C@@H](C)C4)nc3n2)cc1CO,per cent of control,AURKB (human); compound 10.0 µM,86%
same,per cent of control,CDK2 CCNA2 (human); compound 1.0 µM,89%
same,per cent of control,CDK2 CCNA2 (human); compound 10.0 µM,90%
same,per cent of control,CSNK2A1 (human); compound 1.0 µM,104%
same,per cent of control,CSNK2A1 (human); compound 10.0 µM,85%
same,per cent of control,EEF2K (human); compound 1.0 µM,88%
same,per cent of control,EEF2K (human); compound 10.0 µM,108%
same,per cent of control,HIPK2 (human); compound 1.0 µM,89%
same,per cent of control,HIPK2 (human); compound 10.0 µM,89%
same,per cent of control,INSR (human); compound 1.0 µM,81%
same,per cent of control,INSR (human); compound 10.0 µM,67%
same,per cent of control,MAPK11 (human); compound 1.0 µM,106%
same,per cent of control,MAPK11 (human); compound 10.0 µM,83%
same,per cent of control,MAPK8 (human); compound 1.0 µM,80%
same,per cent of control,MAPK8 (human); compound 10.0 µM,93%
same,per cent of control,MAPKAPK2 (human); compound 1.0 µM,98%
same,per cent of control,MAPKAPK2 (human); compound 10.0 µM,81%
same,per cent of control,PAK7 (human); compound 1.0 µM,101%
same,per cent of control,PAK7 (human); compound 10.0 µM,81%
same,per cent of control,PIM3 (human); compound 1.0 µM,114%
same,per cent of control,PIM3 (human); compound 10.0 µM,75%
same,per cent of control,PLK1 (human); compound 1.0 µM,76%
same,per cent of control,PLK1 (human); compound 10.0 µM,94%
same,per cent of control,PRKCA (human); compound 1.0 µM,106%
same,per cent of control,PRKCA (human); compound 10.0 µM,86%
same,per cent of control,[1]; compound 1.0 µM,76%
same,per cent of control,[1]; compound 10.0 µM,64%
same,per cent of control,YES1 (human); compound 1.0 µM,94%
same,per cent of control,YES1 (human); compound 10.0 µM,90%
same,"kinase still bound, per cent of control",[2],100%
same,"kinase still bound, per cent of control",[3],100%
same,"kinase still bound, per cent of control",[4],100%
same,"kinase still bound, per cent of control",[5],100%
same,"kinase still bound, per cent of control",[6],100%
same,"kinase still bound, per cent of control",[7],83%
same,"kinase still bound, per cent of control",[8],100%
same,"kinase still bound, per cent of control",[9],100%
same,"kinase still bound, per cent of control",MARK2 (human) [10],94%
same,"kinase still bound, per cent of control",PIK3CA (human),2.5%
same,"kinase still bound, per cent of control",[11],3.2%
same,"kinase still bound, per cent of control",PIK3CG (human),23%
CCC(=O)N1CCN(c2ccc(-n3c(=O)ccc4cnc5ccc(-c6cnc7ccccc7c6)cc5c43)cc2C(F)(F)F)CC1,per cent of control,[12]; compound 1.0 µM,95%
same,per cent of control,[12]; compound 10.0 µM,84%
same,per cent of control,AURKB (human); compound 1.0 µM,107%
same,per cent of control,AURKB (human); compound 10.0 µM,90%
same,per cent of control,BRSK1 (human); compound 1.0 µM,99%
same,per cent of control,BRSK1 (human); compound 10.0 µM,94%
same,per cent of control,CDK2 CCNA2 (human); compound 1.0 µM,108%
same,per cent of control,CDK2 CCNA2 (human); compound 10.0 µM,77%
same,per cent of control,CSNK2A1 (human); compound 10.0 µM,95%
same,per cent of control,EEF2K (human); compound 1.0 µM,118%
same,per cent of control,EEF2K (human); compound 10.0 µM,111%
same,per cent of control,GCK (human); compound 1.0 µM,69%
same,per cent of control,GCK (human); compound 10.0 µM,25%
same,per cent of control,HIPK1 (human); compound 1.0 µM,76%
same,per cent of control,HIPK1 (human); compound 10.0 µM,85%
same,per cent of control,HIPK2 (human); compound 1.0 µM,96%
same,per cent of control,HIPK2 (human); compound 10.0 µM,88%
same,per cent of control,IRAK4 (human); compound 1.0 µM,112%
same,per cent of control,IRAK4 (human); compound 10.0 µM,76%
same,per cent of control,MAPK11 (human); compound 1.0 µM,83%
same,per cent of control,MAPK11 (human); compound 10.0 µM,78%
same,per cent of control,MAPK8 (human); compound 1.0 µM,98%
same,per cent of control,MAPKAPK2 (human); compound 1.0 µM,102%
same,per cent of control,MAPKAPK2 (human); compound 10.0 µM,108%
same,per cent of control,MARK2 (human) [13]; compound 1.0 µM,117%
same,per cent of control,MARK2 (human) [13]; compound 10.0 µM,102%
same,per cent of control,MINK1 (human); compound 1.0 µM,69%
same,per cent of control,MINK1 (human); compound 10.0 µM,14%
same,per cent of control,[14]; compound 1.0 µM,93%
same,per cent of control,[14]; compound 10.0 µM,82%
same,per cent of control,PAK7 (human); compound 10.0 µM,61%
same,per cent of control,PIM3 (human); compound 1.0 µM,85%
same,per cent of control,PIM3 (human); compound 10.0 µM,30%
same,per cent of control,PLK1 (human); compound 1.0 µM,94%
same,per cent of control,PLK1 (human); compound 10.0 µM,84%
same,per cent of control,PRKCA (human); compound 1.0 µM,83%
same,per cent of control,PRKCA (human); compound 10.0 µM,68%
same,per cent of control,[1]; compound 1.0 µM,79%
same,per cent of control,[1]; compound 10.0 µM,60%
same,per cent of control,STK11 (human); compound 1.0 µM,96%
same,per cent of control,STK11 (human); compound 10.0 µM,80%
same,per cent of control,YES1 (human); compound 1.0 µM,113%
same,per cent of control,YES1 (human); compound 10.0 µM,78%
CC(C)n1nc(-c2cc3cc(O)ccc3[nH]2)c2c(N)ncnc21,per cent of control,AURKB (human); compound 1.0 µM,78%
same,per cent of control,AURKB (human); compound 10.0 µM,27%
same,per cent of control,CDK2 CCNA2 (human); compound 1.0 µM,78%
same,per cent of control,CDK2 CCNA2 (human); compound 10.0 µM,40%
same,per cent of control,CSNK2A1 (human); compound 1.0 µM,72%
same,per cent of control,CSNK2A1 (human); compound 10.0 µM,40%
same,per cent of control,EEF2K (human); compound 1.0 µM,115%
same,per cent of control,EEF2K (human); compound 10.0 µM,106%
same,per cent of control,HIPK2 (human); compound 1.0 µM,26%
same,per cent of control,HIPK2 (human); compound 10.0 µM,7%
same,per cent of control,INSR (human); compound 1.0 µM,69%
same,per cent of control,INSR (human); compound 10.0 µM,58%
same,per cent of control,MAPK11 (human); compound 1.0 µM,91%
same,per cent of control,MAPK11 (human); compound 10.0 µM,77%
same,per cent of control,MAPK8 (human); compound 1.0 µM,94%
same,per cent of control,MAPK8 (human); compound 10.0 µM,103%
same,per cent of control,MAPKAPK2 (human); compound 1.0 µM,96%
same,per cent of control,MAPKAPK2 (human); compound 10.0 µM,94%
same,per cent of control,PAK7 (human); compound 1.0 µM,69%
same,per cent of control,PAK7 (human); compound 10.0 µM,34%
same,per cent of control,PIM3 (human); compound 1.0 µM,59%
same,per cent of control,PIM3 (human); compound 10.0 µM,13%
same,per cent of control,PLK1 (human); compound 1.0 µM,89%
same,per cent of control,PLK1 (human); compound 10.0 µM,47%
same,per cent of control,PRKCA (human); compound 1.0 µM,13%
same,per cent of control,PRKCA (human); compound 10.0 µM,9%
same,per cent of control,[1]; compound 1.0 µM,85%
same,per cent of control,[1]; compound 10.0 µM,69%
same,per cent of control,YES1 (human); compound 1.0 µM,-2%
same,per cent of control,YES1 (human); compound 10.0 µM,-8%
